Assay results published in ChEMBL document CHEMBL1124314, “Development of phosphonate derivatives of gadolinium chelates for NMR imaging of calcified soft tissues” (J Med Chem, 1989).

Legend:
Rattus norvegicus [1] = organism: Rattus norvegicus; assay: Biodistribution in rat bone in the presence of NCA Gd/0.01 M lip; assay type: ADME, organism-based, Bone element; settings: in vivo
Rattus norvegicus [2] = organism: Rattus norvegicus; assay: Biodistribution in rat heart in the presence of 0.05 M Gd/0.15 M lig; assay type: ADME, organism-based; settings: in vivo
Rattus norvegicus [3] = organism: Rattus norvegicus; assay: Biodistribution in rat heart in the presence of NCA Gd/0.01 M lip; assay type: ADME, organism-based; settings: in vivo
Rattus norvegicus [4] = organism: Rattus norvegicus; assay: Biodistribution in rat kidney in the presence of 0.05 M Gd/0.15 M lig; assay type: ADME, organism-based; settings: in vivo
Rattus norvegicus [5] = organism: Rattus norvegicus; assay: Biodistribution in rat kidney in the presence of NCA Gd/0.01 M lip; assay type: ADME, organism-based; settings: in vivo
Rattus norvegicus [6] = organism: Rattus norvegicus; assay: Biodistribution in rat liver in the presence of NCA Gd/0.01 M lip; assay type: ADME, organism-based; settings: in vivo
Rattus norvegicus [7] = organism: Rattus norvegicus; assay: Biodistribution in rat muscle in the presence of 0.05 M Gd/0.15 M lig; assay type: ADME, organism-based, Muscle tissue; settings: in vivo
Rattus norvegicus [8] = organism: Rattus norvegicus; assay: Biodistribution in rat muscle in the presence of NCA Gd/0.01 M lip; assay type: ADME, organism-based, Muscle tissue; settings: in vivo
Rattus norvegicus [9] = assay: Biodistribution in rat s. intestine in the presence of 50 Gd/kg at 2 hr; assay type: ADME, organism-based; settings: in vivo
Rattus norvegicus [10] = assay: Biodistribution in rat s. intestine in the presence of 50 Gd/kg at 6 hr; assay type: ADME, organism-based; settings: in vivo
Rattus norvegicus [11] = organism: Rattus norvegicus; assay: Biodistribution in rat s. intestine in the presence of NCA (No carrier added); assay type: ADME, organism-based; settings: in vivo
Rattus norvegicus [12] = assay: Biodistribution in rat spleen in the presence of 50 Gd/kg at 15 min; assay type: ADME, organism-based; settings: in vivo, 0.25 h
Rattus norvegicus [13] = assay: Biodistribution in rat spleen in the presence of 50 Gd/kg at 2 hr; assay type: ADME, organism-based; settings: in vivo
Rattus norvegicus [14] = organism: Rattus norvegicus; assay: Biodistribution in rat l. intestine in the presence of 0.01 M carrier at 1 hr; assay type: ADME, organism-based; settings: in vivo
Rattus norvegicus [15] = assay: Biodistribution in rat l. intestine in the presence of 50 Gd/kg at 2 hr; assay type: ADME, organism-based; settings: in vivo
Rattus norvegicus [16] = assay: Biodistribution in rat l. intestine in the presence of 50 Gd/kg at 6 hr; assay type: ADME, organism-based; settings: in vivo
Rattus norvegicus [17] = assay: Biodistribution in rat liver by in the presence 50 Gd/kg at 15 min; assay type: ADME, organism-based; settings: in vivo, 0.25 h
Rattus norvegicus [18] = organism: Rattus norvegicus; assay: Biodistribution in rat liver by in the presence of 0.05 M Gd/0.15 M lig; assay type: ADME, organism-based; settings: in vivo
Rattus norvegicus [19] = assay: Biodistribution in rat liver in the presence of 50 Gd/kg at 2 hr; assay type: ADME, organism-based; settings: in vivo
Rattus norvegicus [20] = assay: Biodistribution in rat liver in the presence of 50 Gd/kg at 6 hr; assay type: ADME, organism-based; settings: in vivo
Rattus norvegicus [21] = assay: Biodistribution in rat spleen in the presence of 50 Gd/kg at 6 hr; assay type: ADME, organism-based; settings: in vivo
Rattus norvegicus [22] = organism: Rattus norvegicus; assay: Biodistribution in rat spleen in the presence of NCA Gd/0.01 M lip; assay type: ADME, organism-based; settings: in vivo
Rattus norvegicus [23] = assay: Biodistribution in rat stomach in the presence of 50 Gd/kg at 15 min; assay type: ADME, organism-based; settings: in vivo, 0.25 h
Rattus norvegicus [24] = assay: Biodistribution in rat stomach in the presence of 50 Gd/kg at 2 hr; assay type: ADME, organism-based; settings: in vivo
Rattus norvegicus [25] = organism: Rattus norvegicus; assay: Biodistribution in rat blood in the presence of NCA Gd/0.01 M lip; assay type: ADME, organism-based; settings: in vivo
Rattus norvegicus [26] = organism: Rattus norvegicus; assay: Biodistribution in rat blood in the presence of 0.05 M Gd/0.15 M lig; assay type: ADME, organism-based; settings: in vivo
Rattus norvegicus [27] = assay: Biodistribution in rat blood in the presence of 50 Gd/kg at 15 min; assay type: ADME, organism-based; settings: in vivo, 0.25 h
Rattus norvegicus [28] = assay: Biodistribution in rat blood in the presence of 50 Gd/kg at 2 hr; assay type: ADME, organism-based; settings: in vivo
Rattus norvegicus [29] = assay: Biodistribution in rat blood in the presence of 50 Gd/kg at 6 hr; assay type: ADME, organism-based; settings: in vivo
Rattus norvegicus [30] = organism: Rattus norvegicus; assay: Biodistribution in rat bone in the presence of 0.05 M Gd/0.15 M lig; assay type: ADME, organism-based, Bone element; settings: in vivo

Question: How did the ID/organ (Rattus norvegicus [1]) turn out when `CC(C(=O)O)C(C(=O)O)(P(=O)(O)O)P(=O)(O)O` (stereo not given) was run?
Answer: 6.91%

Question: And the ID/organ (Rattus norvegicus [2])?
Answer: 0.059%

Question: And the ID/organ (Rattus norvegicus [3])?
Answer: 0.099%

Question: What about the ID/organ (Rattus norvegicus [4]) of the same compound?
Answer: 0.447%

Question: And the ID/organ (Rattus norvegicus [5])?
Answer: 0.339%

Question: And the ID/organ (Rattus norvegicus [6])?
Answer: 67.3%

Question: What about the ID/organ (Rattus norvegicus [7]) of the same compound?
Answer: 0.124%

Question: And the ID/organ (Rattus norvegicus [8])?
Answer: 2.38%

Question: What about the ID/organ (Rattus norvegicus [9]) of the same compound?
Answer: 1.03%

Question: And the ID/organ (Rattus norvegicus [10])?
Answer: 0.675%

Question: What about the ID/organ (Rattus norvegicus [11]) of the same compound?
Answer: 0.86%

Question: What about the ID/organ (Rattus norvegicus [12]) of the same compound?
Answer: 11.2%

Question: What about the ID/organ (Rattus norvegicus [13]) of the same compound?
Answer: 12.5%

Question: What about the ID/organ (Rattus norvegicus [14]) of the same compound?
Answer: 0.138%

Question: What about the ID/organ (Rattus norvegicus [15]) of the same compound?
Answer: 0.334%

Question: And the ID/organ (Rattus norvegicus [16])?
Answer: 0.293%

Question: What about the ID/organ (Rattus norvegicus [17]) of the same compound?
Answer: 34.2%

Question: What about the ID/organ (Rattus norvegicus [18]) of the same compound?
Answer: 73%

Question: And the ID/organ (Rattus norvegicus [19])?
Answer: 74.3%

Question: What about the ID/organ (Rattus norvegicus [20]) of the same compound?
Answer: 80.2%

Question: And the ID/organ (Rattus norvegicus [21])?
Answer: 8.12%

Question: And the ID/organ (Rattus norvegicus [22])?
Answer: 2.67%

Question: What about the ID/organ (Rattus norvegicus [23]) of the same compound?
Answer: 0.221%

Question: And the ID/organ (Rattus norvegicus [24])?
Answer: 0.178%

Question: And the ID/organ (Rattus norvegicus [25])?
Answer: 2.62%

Question: And the ID/organ (Rattus norvegicus [26])?
Answer: 0.319%

Question: And the ID/organ (Rattus norvegicus [27])?
Answer: 23.4%

Question: And the ID/organ (Rattus norvegicus [28])?
Answer: 0.26%

Question: And the ID/organ (Rattus norvegicus [29])?
Answer: 0.217%

Question: And the ID/organ (Rattus norvegicus [30])?
Answer: 1.18%
